Measured values published in patent publication US6926763B2, “Purine and isosteric antibacterial compounds” (GLSynthesis, Inc., priority 2002, dated 2005).
≈ marks a conversion by molar mass, not a printed value. Like-named read-outs stand apart in the source and are kept apart here.

Key:
Enterococcus fecalis = experiment: Inhibition of bacterial growth (agar plate MIC), E. fecalis; type: cell-based; conditions: agar plates, 37° C., 24 hours; for MIC: Enterococcus
Description: (§1) Antimicrobial efficacy may be determined by standard methods of microbial culture in growth medium or on plates of agar supplemented with appropriate growth media. For example, microbes, e.g., mycoplasmata or Gram-positive or Gram-negative bacteria, are grown in the presence of serial dilutions of compounds in an appropriate vehicle, and, after a suitable period of growth, the microbial density is measured by visual or instrumental means. The concentration of compound at which no growth occurs is the minimum inhibitory concentration (MIC) of the compound. Test compounds with an appropriate level of growth inhibition are good candidate therapeutics for further evaluation.
(§2) Each compound was assayed against a panel of Gram-positive Bacilli, Enterococci, and Staphylococci, and Gram-negative Escherichia coli, grown in appropriate plate media solidified with 1.3% agar-agar. […] One tenth mL of diluted bacteria containing 500-1000 colony-forming units (CFU) were plated and spread, and the plates were incubated at 37° C. for 24 hours. MIC (minimum inhibitory concentration) was equivalent to the lowest concentration at which growth, i.e. colony formation, was not observed.

B.s. pol IIIC = B.s. pol IIIC (Bacillus subtilis, UniProt P13267); experiment: biochemical; type: biochemical
Sequence of B.s. pol IIIC (P13267 whole entry): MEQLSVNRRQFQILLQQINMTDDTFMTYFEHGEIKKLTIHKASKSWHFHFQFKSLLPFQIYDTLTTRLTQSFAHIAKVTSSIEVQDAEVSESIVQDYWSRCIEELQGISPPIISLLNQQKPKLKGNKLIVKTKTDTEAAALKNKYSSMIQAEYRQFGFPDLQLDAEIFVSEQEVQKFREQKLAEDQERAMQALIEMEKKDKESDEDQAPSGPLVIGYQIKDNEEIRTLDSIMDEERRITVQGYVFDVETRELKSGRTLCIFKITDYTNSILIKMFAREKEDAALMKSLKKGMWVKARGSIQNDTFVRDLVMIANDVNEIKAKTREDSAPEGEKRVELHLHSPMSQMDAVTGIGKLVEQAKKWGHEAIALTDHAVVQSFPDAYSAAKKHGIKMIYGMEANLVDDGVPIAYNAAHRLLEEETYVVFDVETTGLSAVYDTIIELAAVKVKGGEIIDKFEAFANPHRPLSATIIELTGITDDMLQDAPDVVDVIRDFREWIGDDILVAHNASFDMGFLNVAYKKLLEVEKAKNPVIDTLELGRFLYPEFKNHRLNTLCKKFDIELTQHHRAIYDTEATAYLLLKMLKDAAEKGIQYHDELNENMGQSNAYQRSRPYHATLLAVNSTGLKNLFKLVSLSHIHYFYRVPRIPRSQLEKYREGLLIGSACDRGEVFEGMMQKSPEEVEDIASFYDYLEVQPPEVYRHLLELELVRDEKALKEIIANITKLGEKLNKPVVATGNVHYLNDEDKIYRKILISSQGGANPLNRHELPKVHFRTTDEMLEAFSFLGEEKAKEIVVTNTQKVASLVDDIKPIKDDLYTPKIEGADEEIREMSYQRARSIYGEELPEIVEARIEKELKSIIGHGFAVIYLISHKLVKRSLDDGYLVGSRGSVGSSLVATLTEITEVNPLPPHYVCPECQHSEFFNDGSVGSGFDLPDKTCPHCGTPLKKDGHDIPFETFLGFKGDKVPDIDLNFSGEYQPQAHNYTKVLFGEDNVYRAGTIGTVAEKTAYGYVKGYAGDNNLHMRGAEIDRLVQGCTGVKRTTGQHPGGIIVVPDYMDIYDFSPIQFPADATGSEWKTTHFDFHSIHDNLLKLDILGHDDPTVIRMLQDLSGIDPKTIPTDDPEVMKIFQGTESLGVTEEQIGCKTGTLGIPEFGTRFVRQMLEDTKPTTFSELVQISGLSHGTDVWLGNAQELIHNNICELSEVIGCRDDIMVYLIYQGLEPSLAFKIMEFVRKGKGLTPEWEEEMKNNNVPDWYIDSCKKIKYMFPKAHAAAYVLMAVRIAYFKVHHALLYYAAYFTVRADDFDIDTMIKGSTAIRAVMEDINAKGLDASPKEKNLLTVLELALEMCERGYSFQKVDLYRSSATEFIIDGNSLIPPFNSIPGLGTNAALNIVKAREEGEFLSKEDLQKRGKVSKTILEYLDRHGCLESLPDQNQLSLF
Description: (§3) The ability of a test compound to inhibit the activity of DNA pol IIIC or pol IIIE enzymes can be tested by using a DNA polymerase assay as described, for example, in Barnes and Brown, Nucl. […] This rapid screening method can use natural or recombinant DNA pol III enzymes in a standard DNA polymerase activity assay. By including a test compound in a side-by-side assay with a control, the effect of the test compound on polymerase activity can be assessed.
(§4) DNA pol III activity was assayed as described in Barnes et al., Nucl.
(§5) Purified pol IIIC or pol IIIE was added to a buffered solution containing Mg^2+, DTT, glycerol, nicked calf thymus DNA, saturating concentrations of dATP, dCTP, dTTP and [^3H]-dTTP. Reaction mixtures were incubated at 30° C. for 10 min, quenched and filtered, and radioactivity in the acid-insoluble material measured by scintillation counting. Experiments were done in triplicate. Inhibitors were assayed by addition of several dilutions of a stock solution of inhibitor (DMSO or water, depending on solubility) before enzyme addition. […] The truncated assay, i.e., exclusion of the competitive substrate dGTP allows for the direct determination of apparent inhibitor constants (Ki) in this assay system.

Staphylococcus aureus = experiment: Inhibition of bacterial growth (agar plate MIC), S.a.; type: cell-based; conditions: agar plates, 37° C., 24 hours; for MIC: Staphylococcus aureus
Description: as §1, §2

in vitro = in vitro ADME; conditions: human, Caco-2
Excerpt: Table 2 summarizes the results of cell membrane permeability assays of representative compounds of the invention. The assay utilizes CaCo2 cell culture monolayers, described by Artursson and Kalsson, Biochem. Biophys. Res.

Enterococcus fecium = experiment: Inhibition of bacterial growth (agar plate MIC), E. fecium; type: cell-based; conditions: agar plates, 37° C., 24 hours; for MIC: Enterococcus
Description: as §1, §2

B.s. pol IIIE = B.s. pol IIIE (Bacillus subtilis, UniProt O34623); experiment: biochemical; type: biochemical
Sequence of B.s. pol IIIE (O34623 whole entry): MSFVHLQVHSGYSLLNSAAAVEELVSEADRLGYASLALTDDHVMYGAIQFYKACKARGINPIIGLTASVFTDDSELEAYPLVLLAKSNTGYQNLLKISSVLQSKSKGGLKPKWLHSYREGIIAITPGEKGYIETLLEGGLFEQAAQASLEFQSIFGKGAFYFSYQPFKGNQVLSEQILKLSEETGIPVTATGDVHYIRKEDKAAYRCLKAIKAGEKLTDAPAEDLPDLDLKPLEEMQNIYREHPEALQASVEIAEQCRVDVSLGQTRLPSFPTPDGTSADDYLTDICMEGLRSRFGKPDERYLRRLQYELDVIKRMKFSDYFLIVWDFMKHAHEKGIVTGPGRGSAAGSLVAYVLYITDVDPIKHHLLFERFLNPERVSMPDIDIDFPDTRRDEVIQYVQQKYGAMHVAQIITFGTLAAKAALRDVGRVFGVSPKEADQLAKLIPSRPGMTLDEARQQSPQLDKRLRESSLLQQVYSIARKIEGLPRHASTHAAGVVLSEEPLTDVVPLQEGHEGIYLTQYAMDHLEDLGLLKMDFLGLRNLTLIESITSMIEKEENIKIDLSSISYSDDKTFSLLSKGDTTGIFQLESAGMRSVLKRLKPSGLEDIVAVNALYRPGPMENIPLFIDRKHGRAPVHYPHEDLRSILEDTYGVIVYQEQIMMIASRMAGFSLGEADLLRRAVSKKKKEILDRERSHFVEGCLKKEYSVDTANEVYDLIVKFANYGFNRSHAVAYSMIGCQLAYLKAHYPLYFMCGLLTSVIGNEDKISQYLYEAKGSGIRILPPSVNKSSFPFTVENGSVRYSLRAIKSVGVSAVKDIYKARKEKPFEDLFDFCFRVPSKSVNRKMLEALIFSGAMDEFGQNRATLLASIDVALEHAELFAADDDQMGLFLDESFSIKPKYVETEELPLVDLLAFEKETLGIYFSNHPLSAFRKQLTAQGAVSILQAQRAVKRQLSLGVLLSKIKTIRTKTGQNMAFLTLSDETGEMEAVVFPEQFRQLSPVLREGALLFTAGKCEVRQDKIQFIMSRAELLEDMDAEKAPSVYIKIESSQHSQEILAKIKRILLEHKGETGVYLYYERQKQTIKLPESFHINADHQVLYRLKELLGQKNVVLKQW
Description: as §3, §4, §5

MRSA (B42876) = experiment: Inhibition of bacterial growth (agar plate MIC), MRSA (B42876); type: cell-based, methicillin-resistant S.a.; conditions: agar plates, 37° C., 24 hours; for MIC: Staphylococcus aureus, MRSA
Description: as §1, §2

S.a. (Smith) = experiment: Inhibition of bacterial growth (agar plate MIC), S.a. (Smith); type: cell-based, Staphylococcus aureus; conditions: agar plates, 37° C., 24 hours; for MIC: Staphylococcus aureus
Description: as §1, §2

E.c. pol IIIE = E.c. pol IIIE (Escherichia coli, UniProt P10443); experiment: biochemical
Sequence of E.c. pol IIIE (P10443 whole entry): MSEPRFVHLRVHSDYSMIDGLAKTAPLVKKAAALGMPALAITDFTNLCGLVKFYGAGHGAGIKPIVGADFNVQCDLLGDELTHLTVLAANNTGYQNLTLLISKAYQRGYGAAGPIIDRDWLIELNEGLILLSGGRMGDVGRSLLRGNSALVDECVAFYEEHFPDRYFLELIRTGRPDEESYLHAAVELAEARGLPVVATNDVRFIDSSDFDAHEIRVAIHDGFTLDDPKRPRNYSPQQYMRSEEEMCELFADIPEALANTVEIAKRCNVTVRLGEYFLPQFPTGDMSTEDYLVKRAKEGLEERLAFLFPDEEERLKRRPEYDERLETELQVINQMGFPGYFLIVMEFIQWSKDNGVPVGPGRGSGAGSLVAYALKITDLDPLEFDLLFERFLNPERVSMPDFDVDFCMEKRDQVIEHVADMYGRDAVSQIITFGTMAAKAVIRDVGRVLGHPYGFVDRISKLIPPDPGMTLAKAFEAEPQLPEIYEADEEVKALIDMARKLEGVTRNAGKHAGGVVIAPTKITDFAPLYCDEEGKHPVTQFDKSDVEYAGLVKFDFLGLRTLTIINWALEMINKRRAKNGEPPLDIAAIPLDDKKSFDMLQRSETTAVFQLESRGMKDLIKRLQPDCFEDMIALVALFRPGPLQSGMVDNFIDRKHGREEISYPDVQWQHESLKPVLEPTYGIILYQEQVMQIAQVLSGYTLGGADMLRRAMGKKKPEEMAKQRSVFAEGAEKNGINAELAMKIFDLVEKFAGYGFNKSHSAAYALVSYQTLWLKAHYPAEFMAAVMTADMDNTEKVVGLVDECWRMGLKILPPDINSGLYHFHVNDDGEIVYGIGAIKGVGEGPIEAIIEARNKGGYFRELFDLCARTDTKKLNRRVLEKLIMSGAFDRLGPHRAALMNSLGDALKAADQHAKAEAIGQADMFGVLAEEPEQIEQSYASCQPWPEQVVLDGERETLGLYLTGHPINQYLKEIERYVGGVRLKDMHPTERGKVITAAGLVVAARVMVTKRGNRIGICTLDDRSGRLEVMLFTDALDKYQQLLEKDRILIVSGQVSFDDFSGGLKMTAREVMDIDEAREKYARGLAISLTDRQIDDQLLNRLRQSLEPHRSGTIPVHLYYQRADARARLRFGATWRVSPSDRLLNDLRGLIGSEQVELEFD
Description: as §3, §4, §5

Bacillus subtilis = experiment: Inhibition of bacterial growth (agar plate MIC), B.s.; type: cell-based; conditions: agar plates, 37° C., 24 hours; for MIC: Bacillus subtilis
Description: as §1, §2

[1] = test system: vancomycin-resistant E. fecium; experiment: Inhibition of bacterial growth (agar plate MIC), VRE; type: cell-based, Enterococcus fecium; conditions: agar plates, 37° C., 24 hours; for MIC: Enterococcus, VRE
Description: as §1, §2

[2] = truncated assay without dGTP, apparent Ki, read-out: Ki, B.s. pol IIIC
[3] = truncated assay without dGTP, apparent Ki, read-out: Ki, B.s. pol IIIE
[4] = truncated assay without dGTP, apparent Ki

| SMILES | MIC (Enterococcus fecalis) [µg/mL] | Ki (B.s. pol IIIC; [2]) [nM] | Papp (in vitro) [×10⁻⁶ cm/s] | MIC (Enterococcus fecium) [µg/mL] | MIC (MRSA (B42876)) [µg/mL] | MIC (Bacillus subtilis) [µg/mL] | further results |
| --- | --- | --- | --- | --- | --- | --- | --- |
| O=c1[nH]c(NCc2ccc(Cl)c(Cl)c2)nc2ncn(CCCCN3CCOCC3)c12 [Compound 10, 7-[4-(N-Morpholinyl)butyl]-2-(3,4-dichlorobenzylamino)-6-oxopurine] | 10 (≈ 22.2 µM) | 51 | 0.01 | 10 (≈ 22.2 µM) |  |  | MIC (Staphylococcus aureus): 20 µg/mL (≈ 44.3 µM) |
| COCCCCn1c(C)nc2cc(NCc3ccc(Cl)c(Cl)c3)[nH]c(=O)c21 [Compound 6, 2-(3,4-Dichlorobenzylamino)-6-oxo-7-(4-methoxybutyl)-8-methyl-3-deazapurine] | 10 (≈ 24.4 µM) |  |  | 10 (≈ 24.4 µM) | 7.5 (≈ 18.3 µM) | 2.5 (≈ 6.11 µM) | Ki (B.s. pol IIIC): 1250 nM; Ki (B.s. pol IIIE): 2500 nM; MIC (Staphylococcus aureus): 10 µg/mL (≈ 24.4 µM); MIC (S.a. (Smith)): 7.5 µg/mL (≈ 18.3 µM); Ki (E.c. pol IIIE): 426000 nM; MIC [1]: 10 µg/mL (≈ 24.4 µM) |
| CCc1cc(Nc2nc3ncn(CCCCCN4CCC(O)(c5ccc(Cl)c(C(F)(F)F)c5)CC4)c3c(=O)[nH]2)ccc1C [Compound 23, 7-{5-[4-hydroxy-4-(3-trifluoromethyl-4-chlorophenyl)piperidyl]pentyl}-2-(3-ethyl-4-methylphenylamino)-6-oxopurine] |  | 130 |  |  |  |  | MIC, E. fecalis (Enterococcus fecalis): 5 µg/mL (≈ 8.1 µM); Ki (B.s. pol IIIE; [3]): 38000 nM; MIC, S.a. (Staphylococcus aureus): 5 µg/mL (≈ 8.1 µM); MIC, MRSA (B42876) (MRSA (B42876)): 5 µg/mL (≈ 8.1 µM); MIC, S.a. (Smith) (S.a. (Smith)): 5 µg/mL (≈ 8.1 µM); MIC, E. fecium (Enterococcus fecium): 5 µg/mL (≈ 8.1 µM); MIC, B.s. (Bacillus subtilis): 2.5 µg/mL (≈ 4.05 µM); MIC, VRE [1]: 5 µg/mL (≈ 8.1 µM) |
| CCc1cc(Nc2nc3ncn(CCCCCO)c3c(=O)[nH]2)ccc1C [Compound 20, 7-(5-Hydroxypentyl)-2-(3-ethyl-4-methylphenylamino)-6-oxopurine] | 10 (≈ 28.1 µM) | 280 | 0.62 | 10 (≈ 28.1 µM) | 20 (≈ 56.3 µM) |  |  |
| O=c1[nH]c(NCc2ccc(Cl)c(Cl)c2)nc2ncn(CCCCO)c12 [Compound 8, 7-(4-Hydroxybutyl)-2-(3,4-dichlorobenzylamino)-6-oxopurine] | 10 (≈ 26.2 µM) | 190 |  | 7.5 (≈ 19.6 µM) | 30 (≈ 78.5 µM) | 15 (≈ 39.2 µM) | MIC (S.a. (Smith)): 25 µg/mL (≈ 65.4 µM) |
| CNC(=C[N+](=O)[O-])NCCSCc1ccc(CN(C)C)o1 [Ranitidine, reference compound] |  |  | 0.27 |  |  |  |  |
| CCc1cc(Nc2cc3ncn(CCCCOC)c3c(=O)[nH]2)ccc1C [Compound 15, 2-(3-Ethyl-4-methylphenylamino)-6-oxo-7-(4-methoxybutyl)-3-deazapurine] | 10 (≈ 28.2 µM) |  |  | 10 (≈ 28.2 µM) | 10 (≈ 28.2 µM) | 2.5 (≈ 7.05 µM) | Ki (B.s. pol IIIC): 1500 nM; Ki, B.s. pol IIIE (B.s. pol IIIE; [4]): inact |
| O=c1[nH]c(NCc2ccc(Cl)c(Cl)c2)cc2ncn(CCCCCN3CCOCC3)c12 [Compound 5, 2-(3,4-Dichlorobenzylamino)-6-oxo-7-(5-morpholinylpentyl)-3-deazapurine] |  | 100 |  |  |  |  | MIC, E. fecalis (Enterococcus fecalis): 20 µg/mL (≈ 43.1 µM); Ki (B.s. pol IIIE; [3]): 290 nM; MIC, S.a. (Staphylococcus aureus): 20 µg/mL (≈ 43.1 µM); MIC, MRSA (B42876) (MRSA (B42876)): 20 µg/mL (≈ 43.1 µM); MIC, S.a. (Smith) (S.a. (Smith)): 20 µg/mL (≈ 43.1 µM); MIC, E. fecium (Enterococcus fecium): 20 µg/mL (≈ 43.1 µM); MIC, B.s. (Bacillus subtilis): 10 µg/mL (≈ 21.5 µM); MIC, VRE [1]: 15 µg/mL (≈ 32.3 µM) |
| CC(=O)OCCCCn1cnc2nc(NCc3ccc(Cl)c(Cl)c3)[nH]c(=O)c21 [Compound 7, 7-(4-Acetoxybutyl)-2-(3,4-dichlorobenzylamino)-6-oxopurine] | 2.5 (≈ 5.89 µM) | 66 |  | 2.5 (≈ 5.89 µM) | 2.5 (≈ 5.89 µM) | 5 (≈ 11.8 µM) | MIC (Staphylococcus aureus): 5 µg/mL (≈ 11.8 µM); MIC (S.a. (Smith)): 2.5 µg/mL (≈ 5.89 µM); MIC [1]: 5 µg/mL (≈ 11.8 µM) |
| CCc1cc(Nc2nc3ncn(CCCCCOC)c3c(=O)[nH]2)ccc1C [Compound 22, 7-(5-Methoxypentyl)-2-(3-ethyl-4-methylphenylamino)-6-oxopurine] | 5 (≈ 13.5 µM) |  |  | 10 (≈ 27.1 µM) |  | 1.25 (≈ 3.38 µM) | Ki (B.s. pol IIIC): 260 nM; Ki (B.s. pol IIIE): 394000 nM |
| O=c1[nH]c(NCc2ccc(Cl)c(Cl)c2)nc2ncn(CCCCCO)c12 [Compound 12, 7-(5-Hydroxypentyl)-2-(3,4-dichlorobenzylamino)-6-oxopurine] | 5 (≈ 12.6 µM) | 52 |  | 10 (≈ 25.2 µM) |  |  | MIC (Staphylococcus aureus): 20 µg/mL (≈ 50.5 µM) |
| CCc1cc(Nc2nc3ncn(CCCCCOC(C)=O)c3c(=O)[nH]2)ccc1C [Compound 19, 7-(5-Acetoxypentyl)-2-(3-ethyl-4-methylphenylamino)-6-oxopurine] |  |  | 0.58 |  |  |  |  |
| O=c1[nH]c(NCc2ccc(Cl)c(Cl)c2)cc2ncn(CCCCN3CCOCC3)c12 [Compound 4, 2-(3,4-Dichlorobenzylamino)-6-oxo-7-(4-morpholinylbutyl)-3-deazapurine] |  | 94 |  |  |  |  | MIC, E. fecalis (Enterococcus fecalis): 20 µg/mL (≈ 44.4 µM); Ki (B.s. pol IIIE; [3]): 200 nM; MIC, S.a. (Staphylococcus aureus): 20 µg/mL (≈ 44.4 µM); MIC, MRSA (B42876) (MRSA (B42876)): 20 µg/mL (≈ 44.4 µM); MIC, S.a. (Smith) (S.a. (Smith)): 10 µg/mL (≈ 22.2 µM); MIC, E. fecium (Enterococcus fecium): 15 µg/mL (≈ 33.3 µM); MIC, B.s. (Bacillus subtilis): 7.5 µg/mL (≈ 16.7 µM); MIC, VRE [1]: 10 µg/mL (≈ 22.2 µM) |
| CC(C)NCC(O)COc1cccc2ccccc12 (centres unmarked) [Propranolol, reference compound] |  |  | 19.3 |  |  |  |  |
| CC(=O)OCCCCCn1cnc2nc(NCc3ccc(Cl)c(Cl)c3)[nH]c(=O)c21 [Compound 11, 7-(5-Acetoxypentyl)-2-(3,4-dichlorobenzylamino)-6-oxopurine] | 1.25 (≈ 2.85 µM) | 52 |  | 1.25 (≈ 2.85 µM) |  |  | MIC (Staphylococcus aureus): 2.5 µg/mL (≈ 5.7 µM) |
| CCc1cc(Nc2nc3ncn(CCCCO)c3c(=O)[nH]2)ccc1C [Compound 18, 7-(4-Hydroxybutyl)-2-(3-ethyl-4-methylphenylamino)-6-oxopurine] | 20 (≈ 58.6 µM) | 470 | 0.56 | 20 (≈ 58.6 µM) | 30 (≈ 87.9 µM) | 15 (≈ 43.9 µM) | Ki, B.s. pol IIIE (B.s. pol IIIE; [4]): inact; MIC (S.a. (Smith)): 40 µg/mL (≈ 117 µM) |
| COCCCCn1cnc2cc(NCc3ccc(Cl)c(Cl)c3)[nH]c(=O)c21 [Compound 2, 2-(3,4-Dichlorobenzylamino)-6-oxo-7-(4-methoxybutyl)-3-deazapurine] | 5 (≈ 12.6 µM) |  |  | 5 (≈ 12.6 µM) |  | 0.625 (≈ 1.58 µM) | Ki (B.s. pol IIIC): 190 nM; Ki (B.s. pol IIIE): 370 nM; MIC (S.a. (Smith)): 3.75 µg/mL (≈ 9.49 µM); Ki (E.c. pol IIIE): 56000 nM |
